{
  "source": "patent US20260258502A1",
  "about": "“METHODS AND REAGENTS FOR DETECTION OF CIRCULAR DNA MOLECULES IN BIOLOGICAL SAMPLES” (priority 2022, published 2026)",
  "test_system": "Human TK6 cells",
  "experiment": "Duplex sequencing (DS) of human TK6 cells treated with genotoxic compounds: putative DNA circle frequency and mutation frequency",
  "assay_type": "cell-based",
  "conditions": "detected by DS, dose groups vs untreated group, proxy for clastogenicity",
  "description": "To assess whether DNA circle frequency is a proxy for clastogenicity, DS data for various genotoxic agents were re-analyzed. ENU is a well-known potent mutagen and clastogen.\nHuman TK6 cells were treated with different potentially genotoxic compounds. DS libraries were prepared with 500 ng of DNA input. […] FIG. 10A-10B show the frequency of putative circles, calculated as frequency=(#circles detected)/(#duplex bases sequenced).",
  "data": [
    {"smiles": "CCN(N=O)C(N)=O", "note": "[ENU]", "values": [
      {"measurement": "frequency of putative DNA circles per duplex base pair (#circles detected)/(#duplex bases sequenced)", "value": "increased candidate DNA circle frequency in a dose-dependent manner, reaching statistical significance in the highest dose group"}
    ]}
  ]
}
